The values that follow come from paper PMC10854894, “A New Benzo[6,7]oxepino[3,2-b] Pyridine Derivative Induces Apoptosis in Canine Mammary Cancer Cell Lines” (Animals : an Open Access Journal from MDPI, 2024).

Holding throughout (format): cell-based, canine
The subject of assay [1] is REM134 cells. Briefly: Morphological analysis, phase-contrast microscopy. The settings on record: REM134, 50, 100 or 200 µM, 48 h. How it is done:
(§1) To investigate the morphological changes of the two CMC cell lines during the treatment with MPOBA, they were cultured in a 6-well plate at a density of 2 × 10^5 cells/well and allowed to incubate for 24 h until they reached 70–80% confluence. They were subsequently treated with MPOBA at varying concentrations from 0 to 200 µM for 48 h. Images of the cells were captured using a phase-contrast inverted microscope (Nikon, Tokyo, Japan) at 40× magnification.

Assay [2] relates to CMGT071020 cells. In words: Morphological analysis, phase-contrast microscopy. The settings on record: CMGT071020, 50, 100 or 200 µM, 48 h. As to the method: as §1
For assay [3], the system named is REM134 cells. Briefly: Immunohistochemistry of vimentin and cytokeratin, Allred score. The settings on record: REM134, 0-200 µM, 48 h, treatment vs control. How it is done:
(§2) The cells were cultured in a T-25 cell culture flask (SPL life science, Gyeonggi-do, Republic of Korea) at a density of 2 × 10^5 cells/well and allowed to incubate for 24 h until they reached 60–70% confluence. They were subsequently treated with MPOBA at varying concentrations from 0 to 200 µM for 48 h. After treatment, cells were harvested using TrypLE and subjected to centrifugation at 1200 rpm for 5 min to obtain cell pellets. Then, the supernatant was replaced with 10% formalin, and the cell pellets were fixed overnight. The fixed cell pellets were embedded in paraffin blocks and sectioned with a thickness of 3 μm. These slide sections were then subjected to the deparaffinization and rehydration processes. For antigen retrieval, a heat-induced method was adopted, utilizing a vegetable steamer in a citrate buffer (pH = 6) at 90–100 °C for 45 min, followed by a cooling period of 30 min. After these preparatory steps, slides were mounted on cover plates within a Sequenza slide rack (Thermo Scientific, Waltham, MA, USA), void of air bubbles, and filled with Tris-buffered saline (TBS) (pH = 7.6). The immunohistochemical detection employed a Novolink™ Polymer Detection Kit (Leica Biosystems, Newcastle, UK) according to the manufacturer’s instructions. This began with the inhibition of endogenous peroxidase activity with a 150 μL peroxidase block at room temperature for 5 min, followed by washing with TBS three times for 3 min each. Subsequently, a 150 μL protein block was applied, incubated for 5 min, and washed three times with TBS for 3 min. Primary antibodies, including a vimentin (VT) mouse anti-human monoclonal antibody (Clone V9, ready-to-use kit, Leica Biosystems, Newcastle, UK) and a multi-cytokeratin (CK) mouse antibody (Clone AE1/AE3, ready-to-use kit, Leica Biosystems, Newcastle, UK), were incubated at 37 °C for 1 h. […]
(§3) A quantitative evaluation of the stained slides was performed utilizing the Allred scoring method and QuPath bioimaging software version 0.4.4 [48] to mitigate potential biases. […] The positive cells were systematically detected using the “positive cell detection” command in the analyze menu. The Allred score was calculated according to the quantity of marked cells and the intensity of the staining, as shown in Table S1. […] The scores and criteria used to quantify the labeled cells were 0, no labeling; 1, labeling in <1% of cells; 2, labeling in 1–10% of cells; 3, labeling in 11–33% of cells; 4, labeling in 34–66% of cells; and 5, labeling in 67–100% of cells. […] The staining intensity was determined visually. The sum of these criteria for each sample determined the final score.

Assay [4] deals with CMGT071020 cells. Described as above. The following applies: CMGT071020, 0-200 µM, 48 h, treatment vs control. How it is done:
as §2, §3

Assay [5] concerns REM134 cells. Briefly: Annexin V-FITC/PI apoptosis assay, flow cytometry. The following applies: 48 h; for percentage of total apoptosis: untreated 5.14%. As to the method:
(§4) The mode of cell death induced by MPOBA was evaluated using FITC Annexin V apoptosis detection kit I (BD Bioscience, San Jose, CA, USA) according to the manufacturer’s protocols. The REM134 and CMGT071020 cell lines were seeded at a density of 2 × 10^4 cells/well in a 12-well plate and allowed to grow for 24 h (60% confluency) prior to treatment with MPOBA at concentrations ranging from 0 to 200 µM for 48 h. After the incubation period, all adhering and floating cells were harvested and transferred into sterile centrifuge tubes. The cells were centrifuged at 400× g for 5 min at room temperature. The supernatant was aspirated, leaving approximately 50 µL of residual fluid in the tubes to avoid disturbing the pellets. FITC Annexin V (5 µL) and PI (5 µL) were added to the tubes containing cell pellets. The mixtures were gently vortexed and incubated for 15 min at room temperature in the dark. A binding buffer (400 µL) was added to each tube. A total of 20,000 events were acquired for each sample using a CytoFLEX flow cytometer (Beckman Coulter, Miami, FL, USA) within an hour. […] The experiment was performed with four replicates. The positive control was doxorubicin-treated CMC cells, while the negative control was 0.1% DMSO-treated CMC cells.

The test system of assay [6] is CMGT071020 cells. Briefly: Annexin V-FITC/PI apoptosis assay, flow cytometry. The settings on record: 48 h; for percentage of total apoptosis: untreated 5.97%. How it is done:
as §4
A general note: In flow cytometry, cells or beads pass a laser one at a time.

Consider `Cc1ncccc1Oc1ccccc1C=O` [MPOBA, 2-((2-methylpyridin-3-yl)oxy)benzaldehyde], for which the cell morphology entry in the assay on REM134 cells [1] was “reduced in cell size, cell shrinkage, rounding, vacuolation, and a loss of cell-to-cell adhesion”; in the assay on CMGT071020 cells [2], “reduced in cell size, cell shrinkage, rounding, vacuolation, and a loss of cell-to-cell adhesion”. The “cytokeratin (CK) expression, Allred score” value in the assay with REM134 cells [3] and in the assay on CMGT071020 cells [4] was “no statistically significant difference” throughout. Besides, the “vimentin (VT) expression, Allred score” value in the assay with REM134 cells [3] and in the assay on CMGT071020 cells [4] was “no statistically significant difference” each time. For the same compound, the viability at 50 µM in the assay on REM134 cells [5] (Canis lupus familiaris, REM134, 50 μM, Figure 7A plot, read-out: viable cells) amounted to 84.1%; with CMGT071020 cells [6] (Canis lupus familiaris, CMGT071020, 50 μM, Figure 7A plot, read-out: viable cells), 80.6%. The viability at 100 µM was found to be 75.5% in the assay with REM134 cells [5] (Canis lupus familiaris, REM134, 100 μM, Figure 7A plot, read-out: viable cells) and 72.9% in the assay with CMGT071020 cells [6] (Canis lupus familiaris, CMGT071020, 100 μM, Figure 7A plot, read-out: viable cells). Moreover, the viability at 200 µM was determined as 69.6% in the assay with REM134 cells [5] (Canis lupus familiaris, REM134, 200 μM, Figure 7A plot, read-out: viable cells) and 63.4% with CMGT071020 cells [6] (Canis lupus familiaris, CMGT071020, 200 μM, Figure 7A plot, read-out: viable cells). The “percentage of total apoptosis” value is on record as 23.6% with REM134 cells [5] (REM134, 100 µM); 28.75% in the assay with REM134 cells [5] (REM134, 200 µM); 21.88% in the assay on CMGT071020 cells [6] (CMGT071020, 100 µM); 27.07% in the assay with CMGT071020 cells [6] (CMGT071020, 200 µM).
